Data from patent US7199115B2, “17α-fluorosteroids, pharmaceutical compositions containing 17α-fluorosteroids and a method of making them” (Schering AG, priority 2004, dated 2007).
Like-named read-outs stand apart in the source and are kept apart here.

How the values were obtained:
[1] = test system: pregnancy maintenance; test: Gestagen activity in pregnancy maintenance test; assay type: in vivo; conditions: mouse
[2] = target: T1, 5α-reductase-Type-2 (Homo sapiens, UniProt P31213); test: 5α-reductase-Type-2 activity in genital skin homogenates; assay type: biochemical; conditions: optimum conditions at pH=5.5
T1 construct: Under optimum conditions at pH=5.5 in genital skin homogenates; from tissue; host or cells: genital skin homogenates
T1 sequence (P31213 1-254): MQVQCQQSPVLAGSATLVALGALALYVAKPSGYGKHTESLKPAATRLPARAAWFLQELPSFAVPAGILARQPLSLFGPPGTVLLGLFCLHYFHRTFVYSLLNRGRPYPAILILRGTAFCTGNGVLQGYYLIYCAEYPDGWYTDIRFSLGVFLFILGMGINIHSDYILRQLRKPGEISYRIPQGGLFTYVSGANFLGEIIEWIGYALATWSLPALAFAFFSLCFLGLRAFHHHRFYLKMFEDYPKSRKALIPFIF
From the text: Subsequently experimental data for progesterone receptor binding, 5α-reductase-type-2 activity in genital skin homogenates and in vivo data in the case of the exemplary compound of the invention, (E)-17α-fluoro-3-oxo-estra-4-en-17β-carbaldehyde oxime, are reported here.

[3] = target: T2, PR-B (Homo sapiens, UniProt P06401); test: PR-B antagonisms and agonisms; assay type: cell-based
T2 sequence (P06401 1-933): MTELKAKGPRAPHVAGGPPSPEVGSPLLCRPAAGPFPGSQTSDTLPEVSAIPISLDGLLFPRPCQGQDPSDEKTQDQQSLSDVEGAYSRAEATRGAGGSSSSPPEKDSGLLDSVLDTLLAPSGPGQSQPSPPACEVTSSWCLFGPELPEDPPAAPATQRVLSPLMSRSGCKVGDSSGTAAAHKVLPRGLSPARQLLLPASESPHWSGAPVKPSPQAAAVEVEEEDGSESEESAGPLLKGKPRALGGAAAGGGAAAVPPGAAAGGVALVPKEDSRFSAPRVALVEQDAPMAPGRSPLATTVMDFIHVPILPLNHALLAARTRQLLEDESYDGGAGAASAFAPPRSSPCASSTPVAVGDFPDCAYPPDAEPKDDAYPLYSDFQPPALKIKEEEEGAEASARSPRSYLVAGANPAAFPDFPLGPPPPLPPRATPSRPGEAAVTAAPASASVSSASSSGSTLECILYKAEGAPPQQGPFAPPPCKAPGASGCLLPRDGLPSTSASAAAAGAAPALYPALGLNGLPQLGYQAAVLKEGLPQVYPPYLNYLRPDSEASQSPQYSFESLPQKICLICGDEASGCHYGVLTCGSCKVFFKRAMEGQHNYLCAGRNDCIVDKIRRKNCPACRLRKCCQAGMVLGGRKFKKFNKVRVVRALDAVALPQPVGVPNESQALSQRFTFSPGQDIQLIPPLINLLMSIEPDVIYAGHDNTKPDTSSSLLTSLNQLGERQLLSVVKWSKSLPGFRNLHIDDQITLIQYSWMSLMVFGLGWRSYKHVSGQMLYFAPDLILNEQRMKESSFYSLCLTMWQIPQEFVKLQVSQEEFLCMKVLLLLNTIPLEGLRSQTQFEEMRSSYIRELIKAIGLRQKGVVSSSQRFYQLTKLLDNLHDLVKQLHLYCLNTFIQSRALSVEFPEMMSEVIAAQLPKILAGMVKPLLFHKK

[4] = target: T3, Progesterone Receptor (Oryctolagus cuniculus, UniProt P06186); test: Binding to progesterone receptor, uterus cytosol, tracer 3H-ORG 2058; conditions: rabbit uterus cytosol, 0–4° C., 18 h, Progesterone=100%
T3 construct: Biological material: Uterus cytosol, rabbit, pressed; from tissue; host or cells: rabbit uterus cytosol
T3 sequence (P06186 1-930): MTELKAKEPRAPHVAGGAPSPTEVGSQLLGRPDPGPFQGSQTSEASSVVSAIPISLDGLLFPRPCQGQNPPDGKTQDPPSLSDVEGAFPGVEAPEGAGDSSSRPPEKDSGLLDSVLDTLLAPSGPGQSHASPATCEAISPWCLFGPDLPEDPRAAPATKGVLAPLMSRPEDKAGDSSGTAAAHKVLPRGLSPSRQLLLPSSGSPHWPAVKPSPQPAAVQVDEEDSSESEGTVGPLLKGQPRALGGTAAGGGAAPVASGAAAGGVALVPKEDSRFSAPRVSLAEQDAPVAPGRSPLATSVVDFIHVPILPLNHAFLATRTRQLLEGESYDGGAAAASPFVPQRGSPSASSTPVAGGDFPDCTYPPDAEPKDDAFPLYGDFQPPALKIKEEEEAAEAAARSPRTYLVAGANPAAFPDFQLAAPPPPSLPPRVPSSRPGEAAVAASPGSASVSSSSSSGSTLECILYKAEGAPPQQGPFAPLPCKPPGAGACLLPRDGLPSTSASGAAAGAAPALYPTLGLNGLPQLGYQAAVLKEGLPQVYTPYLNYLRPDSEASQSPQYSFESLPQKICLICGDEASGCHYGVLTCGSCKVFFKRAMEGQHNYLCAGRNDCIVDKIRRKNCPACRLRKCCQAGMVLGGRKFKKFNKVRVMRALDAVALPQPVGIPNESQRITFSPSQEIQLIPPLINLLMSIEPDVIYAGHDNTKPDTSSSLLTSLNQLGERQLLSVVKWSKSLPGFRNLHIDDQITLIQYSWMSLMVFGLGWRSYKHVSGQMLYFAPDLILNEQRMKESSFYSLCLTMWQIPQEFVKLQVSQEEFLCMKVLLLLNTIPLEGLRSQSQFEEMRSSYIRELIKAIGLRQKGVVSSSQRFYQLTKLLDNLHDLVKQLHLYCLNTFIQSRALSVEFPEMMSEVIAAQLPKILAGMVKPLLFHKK
From the text: Binding of Compound I to Progesterone Receptor

With `C[C@]12CCC3C4CCC(=O)C=C4CCC3C1CC[C@]2(F)/C=N/O` (stereo partly drawn) [Compound 7, (E)-17α-fluoro-3-oxo-estra-4-en-17β-carbaldehyde oxime] the “Rate of Maintained Gravidity” value ([1]; dosage 0.003 Mg/animal/day) was 0/3, the “Rate of Maintained Gravidity” value ([1]; dosage 0.03 Mg/animal/day) was 2/2 and the “Rate of Maintained Gravidity” value ([1]; dosage 0.3 Mg/animal/day) was 3/3. It also gave an IC50 [2] of 245 nM, an IC50 ([3]; PR-B agonism, read-out: Agonism IC50) of 0.25 nM and an IC50 ([3]; PR-B antagonism, read-out: Antagonism IC50) of 0.339 nM.
For `CC(=O)[C@H]1CC[C@H]2[C@@H]3CCC4=CC(=O)CC[C@]4(C)[C@H]3CC[C@]12C` [Progesterone], the “Relative Binding affinity RBA” value [4] was 100%.
